{"source": "paper PMC10763578", "about": "(Cell host & microbe, 2023)", "target": "CgaA (cytosolic glutathione amidotransferase A; FTN_0435) (Francisella tularensis, UniProt A0Q523)", "sequence (A0Q523 1-235)": "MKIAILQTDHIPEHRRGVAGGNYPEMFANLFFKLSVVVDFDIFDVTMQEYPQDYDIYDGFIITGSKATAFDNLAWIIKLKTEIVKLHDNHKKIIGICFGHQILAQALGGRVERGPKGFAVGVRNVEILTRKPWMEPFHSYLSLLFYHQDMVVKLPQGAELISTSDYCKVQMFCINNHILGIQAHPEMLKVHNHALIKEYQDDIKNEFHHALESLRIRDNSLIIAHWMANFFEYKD", "conditions": "10 mM substrate, 1 uM enzyme, 60 min, 300 mM NaCl, 50 mM Tris-Cl pH 8.5, 37 °C", "data": [{"smiles": "NC(=O)CC[C@H](N)C(=O)O", "note": "[Gln, glutamine]", "values": [{"measurement": "glutamate release, coupled colorimetric kit (A450)", "result": "we detected only a low level of glutamate accumulation following incubation of CgaA with glutamine"}]}]}
